Experimental data reported in patent publication US8481750B2 (Boehringer Ingelheim International GmbH, priority 2009, dated 2013).

Biological target: LFA-1 binding to ICAM-1 (Homo sapiens, UniProt P05107+P20701)
Assay: Inhibition of LFA-1 binding to ICAM-1 (LFA-1/Biotin-sICAM-1 AlphaScreen molecular assay)
Conditions: highest compound concentration 1 μM in 1% DMSO, 37° C., 90 minutes
Source text: Assay to Determine Inhibition of LFA-1 Binding to ICAM-1
This assay protocol is designed to study the direct antagonism, by a test compound, of the interaction of ICAM-1 with the Leukointegrin CD18/CD11a (LFA-1).
The LFA-1/Biotin-sICAM-1 molecular assay measures the ability of test compounds to inhibit binding of LFA-1 to Biotinylated-sICAM using AlphaScreen technology (Ref: Wilson, J, Rossi, C P, Carboni, S, Fremaux, C, Perrin, D, Soto, C, Kosco-Vilbois, M, and Scheer, A: A Homogeneous 384-Well High-Throughput Binding Assay for a TNF Receptor Using Alphascreen Technology. J Biomol Screen 2003; 8:522-532) that uses TS2/4(anti-LFA-1)-custom conjugated AlphaLisa acceptor beads and streptavidin-coated donor beads from PerkinElmer. The assay was performed in white OptiPlates-384 in a volume of 60 μL using assay buffer (Dulbecco's PBS containing calcium and magnesium, 2 mM MgCl2, 0.1 mM PMSF, 0.1% BSA, pH 7.1). To each well, Biotin-sICAM was added followed by purified LFA-1 (in buffer of 50 mM triethylamine, 150 mM NaCl, 1% beta octylglucoside, 2 mM MgCl2 neutralized to pH with 1M Tris-HCl, pH 7.5). For compound testing, compound was added in 5 uL to the above in 25 uL. LFA-1 and Biotin-sICAM-1 were used at concentrations that would yield a signal to background ratio of 8-10. The highest concentration of compound was 1 μM in 1% DMSO. Positive controls were wells without compound containing LFA-1, while blanks were wells without both compound and LFA-1. Plates were mixed and incubated at 37° C. for 90 minutes. This was followed by addition of 15 μL/well TS2/4-congugated acceptor beads diluted in PBS containing 0.1% BSA for a final concentration of 10 μg/mL. The plates were mixed and incubated in the dark for 30 minutes at room temperature followed by addition of 15 μL/well streptavidin-coated donor beads diluted in PBS containing 0.1% BSA at a final concentration of 15 μg/mL. The plates were mixed and incubated in the dark for 60 minutes at room temperature and then read on an EnVision Multilabel Reader using AlphaScreen 384-well OptiPlate protocol.

LFA-1 binding to ICAM-1, sequence (P20701 26-1170): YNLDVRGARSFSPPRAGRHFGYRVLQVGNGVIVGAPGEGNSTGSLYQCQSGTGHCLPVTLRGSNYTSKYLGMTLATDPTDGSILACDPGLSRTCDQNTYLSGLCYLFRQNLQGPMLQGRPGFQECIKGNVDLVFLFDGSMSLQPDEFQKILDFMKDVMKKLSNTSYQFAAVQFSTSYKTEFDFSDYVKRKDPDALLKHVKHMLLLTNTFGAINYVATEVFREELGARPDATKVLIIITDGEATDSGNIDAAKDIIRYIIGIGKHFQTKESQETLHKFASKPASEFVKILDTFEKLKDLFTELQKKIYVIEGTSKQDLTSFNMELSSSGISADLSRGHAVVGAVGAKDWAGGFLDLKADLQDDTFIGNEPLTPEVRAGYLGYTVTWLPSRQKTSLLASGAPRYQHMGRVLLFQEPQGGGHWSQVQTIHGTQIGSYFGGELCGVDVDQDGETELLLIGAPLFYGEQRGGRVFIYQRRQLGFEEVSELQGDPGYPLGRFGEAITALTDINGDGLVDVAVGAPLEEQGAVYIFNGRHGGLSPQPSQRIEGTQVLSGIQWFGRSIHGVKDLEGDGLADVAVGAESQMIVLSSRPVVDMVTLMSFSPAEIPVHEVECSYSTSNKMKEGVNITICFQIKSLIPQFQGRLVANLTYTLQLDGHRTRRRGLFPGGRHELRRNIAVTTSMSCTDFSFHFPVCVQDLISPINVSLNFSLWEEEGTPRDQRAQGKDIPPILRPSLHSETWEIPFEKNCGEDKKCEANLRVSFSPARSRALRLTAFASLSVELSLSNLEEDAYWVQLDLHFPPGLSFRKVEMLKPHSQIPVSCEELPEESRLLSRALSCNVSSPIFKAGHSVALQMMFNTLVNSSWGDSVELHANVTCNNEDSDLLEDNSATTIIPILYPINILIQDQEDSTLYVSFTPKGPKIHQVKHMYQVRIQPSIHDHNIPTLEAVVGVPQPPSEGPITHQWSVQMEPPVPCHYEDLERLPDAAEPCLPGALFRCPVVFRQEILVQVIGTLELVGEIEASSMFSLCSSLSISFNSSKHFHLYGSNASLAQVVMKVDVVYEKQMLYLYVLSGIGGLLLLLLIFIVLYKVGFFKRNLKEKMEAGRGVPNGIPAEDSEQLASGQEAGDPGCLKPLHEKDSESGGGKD
LFA-1 binding to ICAM-1, sequence (P05107 23-769): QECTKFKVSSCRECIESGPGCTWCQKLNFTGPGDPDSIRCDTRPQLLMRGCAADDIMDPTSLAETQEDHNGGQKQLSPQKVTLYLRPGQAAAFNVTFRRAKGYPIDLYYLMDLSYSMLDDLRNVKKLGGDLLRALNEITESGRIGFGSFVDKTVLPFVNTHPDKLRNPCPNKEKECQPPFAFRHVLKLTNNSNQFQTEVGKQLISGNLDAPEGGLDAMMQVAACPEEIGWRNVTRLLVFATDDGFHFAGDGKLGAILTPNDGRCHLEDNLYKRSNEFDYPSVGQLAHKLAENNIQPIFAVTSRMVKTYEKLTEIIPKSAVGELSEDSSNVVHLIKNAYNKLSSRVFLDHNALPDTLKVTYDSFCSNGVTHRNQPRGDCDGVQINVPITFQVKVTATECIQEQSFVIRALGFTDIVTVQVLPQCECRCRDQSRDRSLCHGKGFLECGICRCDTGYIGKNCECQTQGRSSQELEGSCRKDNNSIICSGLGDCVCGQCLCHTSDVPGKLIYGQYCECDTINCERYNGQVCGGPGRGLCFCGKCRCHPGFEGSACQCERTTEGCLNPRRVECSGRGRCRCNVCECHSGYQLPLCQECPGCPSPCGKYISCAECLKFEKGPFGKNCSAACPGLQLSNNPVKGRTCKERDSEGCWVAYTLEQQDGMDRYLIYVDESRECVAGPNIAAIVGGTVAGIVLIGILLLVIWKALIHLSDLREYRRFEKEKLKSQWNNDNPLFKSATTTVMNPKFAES

SMILES | IC50 [nM]
C[C@@]1(Cc2ccc(C#N)cc2)C(=O)N(c2cc(Cl)cc(Cl)c2)c2ncc(C(=O)NC3(C(=O)NC4(c5cc(C(=O)N6CCCCC6)ccn5)CC4)CC3)n21 [compound 110] | 3.4
C[C@@]1(Cc2ccc(C#N)cc2)C(=O)N(c2cc(Cl)cc(Cl)c2)c2ncc(C(=O)NC3(C(=O)NC4(c5ccc(C(=O)N6CCC(CO)CC6)cn5)CC4)CC3)n21 [compound 85] | 0.34
C[C@@]1(Cc2ccc(C#N)cc2)C(=O)N(c2cc(Cl)cc(Cl)c2)c2ncc(C(=O)NC3(C(=O)NC4(c5ccc(C(=O)NCC(O)CO)cn5)CC4)CC3)n21 (stereo partly drawn) [compound 133] | 1.4
C[C@@]1(Cc2ccc(C#N)cc2)C(=O)N(c2cc(Cl)cc(Cl)c2)c2ncc(C(=O)NC3(C(=O)NC4(c5ccc(C(=O)NCc6ccccn6)cn5)CC4)CC3)n21 [compound 36] | 0.25
C[C@H](CO)NC(=O)c1ccnc(C2(NC(=O)C3(NC(=O)c4cnc5n4[C@](C)(Cc4ccc(C#N)cc4)C(=O)N5c4cc(Cl)cc(Cl)c4)CC3)CC2)c1 [compound 49] | 0.56
C[C@@]1(Cc2ccc(C#N)cc2)C(=O)N(c2cc(Cl)cc(Cl)c2)c2ncc(C(=O)NC3(C(=O)NC4(c5ccc(C(=O)NCCc6ccncc6)cn5)CC4)CC3)n21 [compound 169] | 2.5
C[C@@]1(Cc2ccc(C#N)cc2)C(=O)N(c2cc(Cl)cc(Cl)c2)c2ncc(C(=O)NC3(C(=O)NC4(c5ccc(C(=O)NC6CCC6)cn5)CC4)CC3)n21 [compound 71] | 0.74
CC(O)CNC(=O)c1ccnc(C2(NC(=O)C3(NC(=O)c4cnc5n4[C@](C)(Cc4ccc(C#N)cc4)C(=O)N5c4cc(Cl)cc(Cl)c4)CC3)CC2)c1 (stereo partly drawn) [compound 146] | 0.98
CC(NC(=O)c1ccc(C2(NC(=O)C3(NC(=O)c4cnc5n4[C@](C)(Cc4ccc(C#N)cc4)C(=O)N5c4cc(Cl)cc(Cl)c4)CC3)CC2)nc1)c1ccccn1 (stereo partly drawn) [compound 155] | 0.74
C[C@@]1(Cc2ccc(C#N)cc2)C(=O)N(c2cc(Cl)cc(Cl)c2)c2ncc(C(=O)NC3(C(=O)NC4(c5cccc(C(=O)NCCN)n5)CC4)CC3)n21 [compound 40] | 1.3
C[C@@]1(Cc2ccc(C#N)cc2)C(=O)N(c2cc(Cl)cc(Cl)c2)c2ncc(C(=O)NC3(C(=O)NC4(c5ccc(C(=O)NC6CC6)cn5)CC4)CC3)n21 [compound 126] | 2.6
CN(C)CCNC(=O)c1ccnc(C2(NC(=O)C3(NC(=O)c4cnc5n4[C@](C)(Cc4ccc(C#N)cc4)C(=O)N5c4cc(Cl)cc(Cl)c4)CC3)CC2)c1 [compound 62] | 1.1
C[C@@]1(Cc2ccc(C#N)cc2)C(=O)N(c2cc(Cl)cc(Cl)c2)c2ncc(C(=O)NC3(C(=O)NC4(c5cc(C(=O)NCC6CC6)ccn5)CC4)CC3)n21 [compound 142] | 1.3
C[C@@]1(Cc2ccc(C#N)cc2)C(=O)N(c2cc(Cl)cc(Cl)c2)c2ncc(C(=O)NC3(C(=O)NC4(c5cc(C(=O)NCc6ccco6)ccn5)CC4)CC3)n21 [compound 76] | 0.79
C[C@@]1(Cc2ccc(C#N)cc2)C(=O)N(c2cc(Cl)cc(Cl)c2)c2ncc(C(=O)NC3(C(=O)NC4(c5ccc(C(=O)N6CCNCC6)cn5)CC4)CC3)n21 [compound 56] | 0.6
C[C@@]1(Cc2ccc(OC(F)(F)F)cc2)C(=O)N(c2cc(Cl)cc(Cl)c2)c2ncc(C(=O)NC3(C(=O)NC4(c5ccc(C(N)=O)cn5)CC4)CC3)n21 [compound 94] | 1.5
C[C@@]1(Cc2ccc(C#N)cc2)C(=O)N(c2cc(Cl)cc(Cl)c2)c2ncc(C(=O)NC3(C(=O)NC4(c5ccc(C(=O)NCc6ccccc6)cn5)CC4)CC3)n21 [compound 81] | 1.5
CN1CCN(C(=O)c2cccc(C3(NC(=O)C4(NC(=O)c5cnc6n5[C@](C)(Cc5ccc(C#N)cc5)C(=O)N6c5cc(Cl)cc(Cl)c5)CC4)CC3)n2)CC1 [compound 157] | 0.52

SMILES | IC50 [nM]
C[C@@]1(Cc2ccc(C#N)cc2)C(=O)N(c2cc(Cl)cc(Cl)c2)c2ncc(C(=O)NC3(C(=O)NC4(c5cc(C(=O)N6CCNCC6)ccn5)CC4)CC3)n21 [compound 97] | 1
C[C@@]1(Cc2ccc(C#N)cc2)C(=O)N(c2cc(Cl)cc(Cl)c2)c2ncc(C(=O)NC3(C(=O)NC4(c5cc(C(=O)NCc6cccnc6)ccn5)CC4)CC3)n21 [compound 72] | 0.45
CC(NC(=O)c1cccc(C2(NC(=O)C3(NC(=O)c4cnc5n4[C@](C)(Cc4ccc(C#N)cc4)C(=O)N5c4cc(Cl)cc(Cl)c4)CC3)CC2)n1)c1ccccn1 (stereo partly drawn) [compound 12] | 8.5
C[C@@H](NC(=O)c1ccc(C2(NC(=O)C3(NC(=O)c4cnc5n4[C@](C)(Cc4ccc(C#N)cc4)C(=O)N5c4cc(Cl)cc(Cl)c4)CC3)CC2)nc1)c1ccccc1 [compound 65] | 2.1
CNC(=O)c1ccc(C2(NC(=O)C3(NC(=O)c4cnc5n4[C@](C)(Cc4ccc(C#N)cc4)C(=O)N5c4cc(Cl)cc(Cl)c4)CC3)CC2)nc1 [compound 140] | 1.5
C[C@@]1(Cc2ccc(C#N)cc2)C(=O)N(c2cc(Cl)cc(Cl)c2)c2ncc(C(=O)NC3(C(=O)NC4(c5cc(C(=O)NCC(N)=O)ccn5)CC4)CC3)n21 [compound 172] | 0.84
C[C@@]1(Cc2ccc(C#N)cc2)C(=O)N(c2cc(Cl)cc(Cl)c2)c2ncc(C(=O)NC3(C(=O)NC4(c5cccc(C(=O)NCc6ccccn6)n5)CC4)CC3)n21 [compound 92] | 1.3
C[C@@]1(Cc2ccc(C#N)cc2)C(=O)N(c2cc(Cl)cc(Cl)c2)c2ncc(C(=O)NC3(C(=O)NC4(c5ccc(C(=O)NCCc6cccnc6)cn5)CC4)CC3)n21 [compound 84] | 0.53
C[C@@]1(Cc2ccc(C#N)cc2)C(=O)N(c2cc(Cl)cc(Cl)c2)c2ncc(C(=O)NC3(C(=O)NC4(c5cccc(C(=O)NCCO)n5)CC4)CC3)n21 [compound 30] | 0.91
C[C@@]1(Cc2ccc(C#N)cc2)C(=O)N(c2cc(Cl)cc(Cl)c2)c2ncc(C(=O)NC3(C(=O)NC4(c5cccc(C(N)=O)n5)CC4)CC3)n21 [compound 98] | 1.1
CC(NC(=O)c1ccc(C2(NC(=O)C3(NC(=O)c4cnc5n4[C@](C)(Cc4ccc(C#N)cc4)C(=O)N5c4cc(Cl)cc(Cl)c4)CC3)CC2)nc1)c1ccncc1 (stereo partly drawn) [compound 46] | 0.78
CC(O)CNC(=O)c1cccc(C2(NC(=O)C3(NC(=O)c4cnc5n4[C@](C)(Cc4ccc(C#N)cc4)C(=O)N5c4cc(Cl)cc(Cl)c4)CC3)CC2)n1 (stereo partly drawn) [compound 74] | 1.4
CN(C)CCNC(=O)c1ccc(C2(NC(=O)C3(NC(=O)c4cnc5n4[C@](C)(Cc4ccc(C#N)cc4)C(=O)N5c4cc(Cl)cc(Cl)c4)CC3)CC2)nc1 [compound 106] | 0.82
C[C@@]1(Cc2ccc(C#N)cc2)C(=O)N(c2cc(Cl)cc(Cl)c2)c2ncc(C(=O)NC3(C(=O)NC4(c5cccc(C(=O)N6CCC[C@H]6C(N)=O)n5)CC4)CC3)n21 [compound 28] | 2.5
CC(CO)NC(=O)c1ccc(C2(NC(=O)C3(NC(=O)c4cnc5n4[C@](C)(Cc4ccc(C#N)cc4)C(=O)N5c4cc(Cl)cc(Cl)c4)CC3)CC2)nc1 (stereo partly drawn) [compound 27] | 0.74
C[C@@]1(Cc2ccc(C#N)cc2)C(=O)N(c2cc(Cl)cc(Cl)c2)c2ncc(C(=O)NC3(C(=O)NC4(c5ccc(C(=O)NCc6ccco6)cn5)CC4)CC3)n21 [compound 3] | 0.29
C[C@@]1(Cc2ccc(C#N)cc2)C(=O)N(c2cc(Cl)cc(Cl)c2)c2ncc(C(=O)NC3(C(=O)NC4(c5cccc(C(=O)N6CCCC6)n5)CC4)CC3)n21 [compound 11] | 3.4
C[C@@]1(Cc2ccc(C#N)cc2)C(=O)N(c2cc(Cl)cc(Cl)c2)c2ncc(C(=O)NC3(C(=O)NC4(c5ccc(C(=O)NCC(N)=O)cn5)CC4)CC3)n21 [compound 14] | 0.27
